Experimental data from patent US20190365799A1, “THERAPIES FOR THE TREATMENT OF LIDOCAINE-INEFFECTIVE AND HYPOKALEMIC CONDITIONS” (AlkaliDx, Inc., priority 2016, published 2019).
Entries after “also recorded” stand apart in the source; their conditions may differ.

Tests used:
[1] = tested on: sodium channel in the sensory neurons; conditions: local anesthesia; Rozanski et al. 1988, Nakai et al. 2000; cited from earlier work
[2] = oral potassium salt therapy, general statement; cited from earlier work
[3] = tested on: patients with Lidocaine-Ineffective Conditions; assay: Off-label treatment of patients with lidocaine-ineffective conditions with potassium or potassium-elevating drugs (clinical experience, patient reports); assay type: in vivo, human
Procedure: The condition is a chronic one, and patients benefit from increasing the serum potassium both prophylactically and acutely. I have discovered that patients with such “Lidocaine-Ineffective Conditions” that are treated with the compositions and methods of this invention (e.g., potassium supplementation or potassium-elevating agents) derive a significant therapeutic benefit.
Based on our research and discussions with us, patients with lidocaine-ineffective conditions have been treated with potassium and potassium-elevating drugs under the care of their personal physician in off-label use.

[4] = clinical experience with 15 patients, potassium supplementation

## CCN(CC)CC(=O)Nc1c(C)cccc1C [lidocaine]
[1]
  share of the population for which lidocaine is ineffective: 2.7-11%

## [Cl-].[K+] [potassium chloride]
[2]
  gastric tolerability: usually results in stomach upset and gastric pain; also recorded: regularly causes gastric upset

## O=C([O-])[C@H](O)[C@@H](O)[C@H](O)[C@H](O)CO.[K+] [potassium gluconate]
[2]
  gastric tolerability: better tolerated

## [K+] [potassium]
[3]; [4]
  nervous system sensitivity: restore the normal level of nervous system sensitivity
  symptoms of ADHD: suppresses the symptoms of ADHD
[3]; off-label use under care of personal physician, anecdotal patient reports
  patient-reported effect of treatment: nothing short of miraculous; also recorded: stopped fighting with their teacher
[3]; off-label use, same dose, middle-aged person
  persistence of effect over time: continued to be as effective, at the same dose, after many months
